Here are results for 23 compounds from ChEMBL document CHEMBL3991601, “The target landscape of clinical kinase drugs” (Science, 2017).

Structures are written as SMILES. Activity calls are given as the source filed them.

In general, Kd refers to the constant that tells how readily two partners part at equilibrium.

Test [1] addresses T1, RNA cytidine acetyltransferase (Homo sapiens, UniProt Q9H0A0).
T1 sequence (Q9H0A0 whole entry): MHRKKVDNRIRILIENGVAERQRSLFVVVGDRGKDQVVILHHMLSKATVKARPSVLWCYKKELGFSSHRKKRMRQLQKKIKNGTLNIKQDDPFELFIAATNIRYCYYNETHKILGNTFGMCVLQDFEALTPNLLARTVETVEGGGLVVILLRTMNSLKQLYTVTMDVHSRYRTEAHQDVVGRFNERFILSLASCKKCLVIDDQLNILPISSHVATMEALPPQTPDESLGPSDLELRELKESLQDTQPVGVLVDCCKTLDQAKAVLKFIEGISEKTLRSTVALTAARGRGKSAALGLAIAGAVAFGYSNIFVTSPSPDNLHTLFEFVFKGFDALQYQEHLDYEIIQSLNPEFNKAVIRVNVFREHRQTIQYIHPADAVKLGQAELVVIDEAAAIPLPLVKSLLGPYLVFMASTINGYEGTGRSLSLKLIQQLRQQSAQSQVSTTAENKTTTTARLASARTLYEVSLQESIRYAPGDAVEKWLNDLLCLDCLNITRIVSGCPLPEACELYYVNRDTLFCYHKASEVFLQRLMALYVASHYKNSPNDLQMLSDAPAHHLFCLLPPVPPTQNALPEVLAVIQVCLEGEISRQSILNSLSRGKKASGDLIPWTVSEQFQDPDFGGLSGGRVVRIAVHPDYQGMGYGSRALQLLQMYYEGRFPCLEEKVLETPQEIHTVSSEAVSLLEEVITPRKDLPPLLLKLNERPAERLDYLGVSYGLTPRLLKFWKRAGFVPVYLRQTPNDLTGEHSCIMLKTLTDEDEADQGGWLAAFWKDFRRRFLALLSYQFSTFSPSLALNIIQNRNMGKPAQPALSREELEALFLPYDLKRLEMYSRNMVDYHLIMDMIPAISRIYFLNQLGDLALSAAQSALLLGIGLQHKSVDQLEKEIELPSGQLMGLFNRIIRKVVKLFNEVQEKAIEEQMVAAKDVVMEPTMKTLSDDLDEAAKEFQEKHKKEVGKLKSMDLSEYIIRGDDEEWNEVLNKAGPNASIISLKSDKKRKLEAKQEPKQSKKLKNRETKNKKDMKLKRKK

The target of test [2] is Ribosomal protein S6 kinase alpha-3 (Homo sapiens, UniProt P51812).
The target of another test is T2, ADP/ATP translocase 3 (Homo sapiens, UniProt P12236).
T2 sequence (P12236 whole entry): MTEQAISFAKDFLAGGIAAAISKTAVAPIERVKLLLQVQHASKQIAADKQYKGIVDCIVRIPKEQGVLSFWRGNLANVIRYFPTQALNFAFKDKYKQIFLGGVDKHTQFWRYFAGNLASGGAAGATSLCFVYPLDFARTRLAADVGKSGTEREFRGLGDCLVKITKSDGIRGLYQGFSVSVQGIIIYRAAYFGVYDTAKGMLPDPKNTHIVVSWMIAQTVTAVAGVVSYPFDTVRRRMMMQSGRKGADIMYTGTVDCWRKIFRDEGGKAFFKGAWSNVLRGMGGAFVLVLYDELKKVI

The target of test [3] is T3, Serine/threonine-protein kinase ULK1 (Homo sapiens, UniProt O75385).
T3 sequence (O75385 whole entry): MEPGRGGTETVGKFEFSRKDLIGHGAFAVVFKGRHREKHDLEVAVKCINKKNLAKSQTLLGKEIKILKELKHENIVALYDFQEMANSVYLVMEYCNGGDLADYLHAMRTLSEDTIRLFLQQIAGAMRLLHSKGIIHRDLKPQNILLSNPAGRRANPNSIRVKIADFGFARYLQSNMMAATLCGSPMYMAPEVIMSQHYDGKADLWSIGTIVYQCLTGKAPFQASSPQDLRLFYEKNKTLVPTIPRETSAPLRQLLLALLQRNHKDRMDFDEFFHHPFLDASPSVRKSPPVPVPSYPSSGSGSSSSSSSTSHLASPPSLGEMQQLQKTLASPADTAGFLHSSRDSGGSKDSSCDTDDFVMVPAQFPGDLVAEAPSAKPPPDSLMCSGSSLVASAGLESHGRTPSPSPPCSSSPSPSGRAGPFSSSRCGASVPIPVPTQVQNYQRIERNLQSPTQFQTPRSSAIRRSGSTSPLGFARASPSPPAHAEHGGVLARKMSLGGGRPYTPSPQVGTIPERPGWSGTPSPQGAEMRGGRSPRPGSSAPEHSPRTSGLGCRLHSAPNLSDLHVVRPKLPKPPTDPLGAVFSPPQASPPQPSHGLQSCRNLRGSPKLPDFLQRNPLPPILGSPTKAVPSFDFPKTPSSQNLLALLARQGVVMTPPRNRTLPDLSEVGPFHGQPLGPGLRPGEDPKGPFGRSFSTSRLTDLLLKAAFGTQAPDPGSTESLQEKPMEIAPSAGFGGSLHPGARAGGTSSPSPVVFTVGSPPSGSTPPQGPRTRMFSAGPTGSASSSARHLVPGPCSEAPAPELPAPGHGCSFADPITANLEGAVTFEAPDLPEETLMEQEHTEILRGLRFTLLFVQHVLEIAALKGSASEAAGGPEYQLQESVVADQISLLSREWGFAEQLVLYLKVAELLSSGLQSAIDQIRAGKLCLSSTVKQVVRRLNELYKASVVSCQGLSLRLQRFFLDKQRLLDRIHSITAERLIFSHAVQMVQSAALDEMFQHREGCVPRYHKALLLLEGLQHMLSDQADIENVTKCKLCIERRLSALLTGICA
Further: in the data inactive means no Kd found up to 30 µM.

Ribosomal protein S6 kinase alpha-3, sequence (P51812 whole entry): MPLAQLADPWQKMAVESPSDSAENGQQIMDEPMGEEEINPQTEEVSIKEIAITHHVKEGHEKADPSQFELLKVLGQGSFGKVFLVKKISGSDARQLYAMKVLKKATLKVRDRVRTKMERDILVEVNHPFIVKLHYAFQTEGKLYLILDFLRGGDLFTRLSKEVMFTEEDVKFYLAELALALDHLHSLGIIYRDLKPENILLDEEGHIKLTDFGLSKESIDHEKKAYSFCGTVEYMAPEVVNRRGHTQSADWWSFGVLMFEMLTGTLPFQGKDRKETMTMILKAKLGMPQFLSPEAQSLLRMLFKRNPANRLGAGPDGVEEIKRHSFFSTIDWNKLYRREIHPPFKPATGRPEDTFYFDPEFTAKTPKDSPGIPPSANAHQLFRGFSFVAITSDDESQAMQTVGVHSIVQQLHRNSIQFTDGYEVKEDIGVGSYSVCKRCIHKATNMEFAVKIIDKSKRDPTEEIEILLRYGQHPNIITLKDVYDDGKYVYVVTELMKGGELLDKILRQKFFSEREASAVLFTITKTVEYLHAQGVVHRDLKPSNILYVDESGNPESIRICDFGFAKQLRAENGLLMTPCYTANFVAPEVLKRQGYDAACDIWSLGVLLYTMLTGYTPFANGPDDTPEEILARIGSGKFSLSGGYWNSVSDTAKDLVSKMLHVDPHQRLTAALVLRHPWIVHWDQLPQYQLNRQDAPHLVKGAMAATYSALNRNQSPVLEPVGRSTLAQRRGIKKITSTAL

Take `NC(=O)c1ccc(N(C(N)=O)c2c(F)cccc2F)nc1-c1ccc(F)cc1F` [VX-702]: the Kd (in test [1]; in test [2]; at ADP/ATP translocase 3; in test [3]) was > 30 µM (inactive) each time.
Turning to `Cc1cc(-c2cc(OC(=O)c3ccccc3)ccc2Cl)cc2nnc(Nc3ccc(OCCN4CCCC4)cc3)nc12` [TG100-801], the Kd (in test [1]; in test [2]; on ADP/ATP translocase 3; in test [3]) was > 30 µM (inactive) in each case.
With `O=C(Nc1ccc(OC(F)(F)F)cc1)c1sccc1NCc1ccnc2ccccc12` [OSI-930], the Kd (in test [1]; in test [2]; at ADP/ATP translocase 3; in test [3]) was > 30 µM (inactive) each time.
In the case of `COc1ccc(-c2ccc3ncc4c(c3c2)n(-c2ccc(N3CCNCC3)c(C(F)(F)F)c2)c(=O)n4C)cn1` [BGT-226 FREE BASE], the Kd (in test [1]; in test [2]; at ADP/ATP translocase 3; in test [3]) was > 30 µM (inactive) throughout.
In the case of `CNC(=O)c1ccc(Nc2ncc(C(F)(F)F)c(NCc3nccnc3N(C)S(C)(=O)=O)n2)cc1` [DEFACTINIB], the Kd (in test [1]; in test [2]; at ADP/ATP translocase 3; in test [3]) was > 30 µM (inactive) in each case.
Regarding `Cc1cc(C(=O)Nc2cc(Oc3ccc4nc(NC(=O)C5CC5)cn4n3)ccc2C)n(C)n1` [TAK-593], the Kd (in test [1]; in test [2]; on ADP/ATP translocase 3; in test [3]) was > 30 µM (inactive) in each case.
In the case of `O=C(O)c1ccc2c(c1)nc(Nc1cccc(Cl)c1)c1ccncc12` [SILMITASERTIB], the Kd in test [1] was > 30 µM (inactive); in test [2], > 30 µM (inactive); on ADP/ATP translocase 3, > 30 µM (inactive); in test [3], 3.66 µM (active).
On to `N#CCNC(=O)c1ccc(-c2ccnc(Nc3ccc(N4CCOCC4)cc3)n2)cc1` [MOMELOTINIB], for which the Kd (in test [1]; in test [2]; on ADP/ATP translocase 3; in test [3]) was > 30 µM (inactive) in each case.
For `c1cc(OCCN2CCCCC2)cc(-c2n[nH]c3ccc(-c4nc[nH]n4)cc23)c1` [CC-401], the Kd (in test [1]; in test [2]; at ADP/ATP translocase 3; in test [3]) was > 30 µM (inactive) throughout.
On to `O=S(=O)(c1cccc2c(O)nccc12)N1CCCNCC1` [HYDROXYFASUDIL], for which the Kd in test [1] was > 30 µM (inactive); in test [2], > 30 µM (inactive); at ADP/ATP translocase 3 it was > 30 µM (inactive); in test [3], 23.3 µM (active).
Consider `CCN1CCN(Cc2ccc(Nc3ncc(F)c(-c4cc(F)c5nc(C)n(C(C)C)c5c4)n3)nc2)CC1` [ABEMACICLIB], for which the Kd (in test [1]; in test [2]; on ADP/ATP translocase 3; in test [3]) was > 30 µM (inactive) each time.
Turning to `C=CC(=O)Nc1cccc(Nc2nc(Nc3ccc(N4CCN(C(C)=O)CC4)cc3OC)ncc2C(F)(F)F)c1` [ROCILETINIB], the Kd (in test [1]; in test [2]; on ADP/ATP translocase 3; in test [3]) was > 30 µM (inactive) throughout.
For the compound `O=c1[nH]c([C@@H]2CCCN2)nc2c1oc1ccc(Cl)cc12`, the Kd (in test [1]; in test [2]; on ADP/ATP translocase 3; in test [3]) was > 30 µM (inactive) in each case.
In the case of `Cc1c(Cn2c(C)nc3c(C(=O)O)cc(N4CCOCC4)cc32)cccc1C(F)(F)F` [GSK-2636771], the Kd (in test [1]; in test [2]; on ADP/ATP translocase 3; in test [3]) was > 30 µM (inactive) throughout.
`COc1cc2ncnc(Nc3ccc(O)cc3)c2cc1OC` [WHI-P131]: the Kd (in test [1]; in test [2]; at ADP/ATP translocase 3; in test [3]) was > 30 µM (inactive) throughout.
Take `Cn1c(=O)c(F)c(Nc2ccc(I)cc2F)c2c(=O)n(C[C@@H](O)CO)cnc21` [TAK-733]: the Kd (in test [1]; in test [2]; on ADP/ATP translocase 3; in test [3]) was > 30 µM (inactive) in each case.
For the compound `COc1cccc(Nc2ncnn3ccc(CN4CC[C@@H](N)[C@H](O)C4)c23)c1` [BMS-690514], the Kd (in test [1]; in test [2]; on ADP/ATP translocase 3; in test [3]) was > 30 µM (inactive) each time.
For `S=C(NCc1ccc2c(c1)OCO2)N1CCN(c2ncnc3c2oc2ccccc23)CC1` [AMUVATINIB], the Kd (in test [1]; in test [2]; at ADP/ATP translocase 3; in test [3]) was > 30 µM (inactive) in each case.
As for `C=CC(=O)Nc1cc(Nc2nccc(-c3cn(C)c4ccccc34)n2)c(OC)cc1N(C)CCN(C)C` [OSIMERTINIB], the Kd (in test [1]; in test [2]; at ADP/ATP translocase 3; in test [3]) was > 30 µM (inactive) each time.
`Cn1cc(-c2[nH]c3cc(NC(=O)[C@H](N)C4CCCCC4)cc4c3c2C=NNC4=O)cn1`: the Kd (in test [1]; in test [2]; on ADP/ATP translocase 3; in test [3]) was > 30 µM (inactive) throughout.
As to `COCCN1CCN(Cc2ccc(-c3n[nH]c4c3C(=O)c3c(NC(=O)NN5CCOCC5)cccc3-4)cc2)CC1` [RGB-286638], the Kd (in test [1]; in test [2]; on ADP/ATP translocase 3; in test [3]) was > 30 µM (inactive) throughout.
As to `C[C@@H]1COC(Nc2ccc3ncnc(Nc4ccc(OCc5nccs5)c(Cl)c4)c3c2)=N1` [VARLITINIB], the Kd (in test [1]; in test [2]; at ADP/ATP translocase 3; in test [3]) was > 30 µM (inactive) throughout.
`C=CCN(/C=C1/C(=O)O[C@H](COC)[C@@]2(C)C1=C(O)C(=O)C1=C2[C@H](OC(C)=O)C[C@]2(C)C(=O)CC[C@@H]12)CC=C` [SONOLISIB]: the Kd (in test [1]; in test [2]; at ADP/ATP translocase 3; in test [3]) was > 30 µM (inactive) each time.
